Legend:
in vivo = assay: in vivo; set-up: species or system ddy-N mice; conditions: mouse
Experimental: Acute toxicity of ethyl docosahexaenoate was tested.
Tested animal: ddy-N mice, 5-week age, 5 male and 5 female
All tested mice were anatomically evaluated after the test.

fulminant hepatitis = assay: Survival of model rats with induced fulminant hepatitis (D-galactosamine hydrochloride and lipopolysaccharide); assay type: in vivo, Wister rats
Experimental: Male Wister rats of 200 g weight were processed to be model animals for inducing hepatitis. Namely, 1500 mg/kg-weight of D-galactosamine hydrochloride was intestinally administrated and, at the same time, 10 μg of lipopolysaccharide derived from E. coli 0111:B4 was injected intravenously.

SMILES | LD50 (in vivo) | rats survived (fulminant hepatitis; emulsion of ethyl ester of 99% pure DHA, same experiment as Example 2, control rats died within 24 hours) | model rats survived more than 24 hours (fulminant hepatitis; emulsion containing 10% of 99% pure DHA triglyceride, simultaneous with hepatitis inducer) | induction of hepatitis (fulminant hepatitis; model rats, result in words)
CC/C=C\C/C=C\C/C=C\C/C=C\C/C=C\C/C=C\CCC(=O)OCC [ethyl docosahexaenoate] | > 2000 mg/kg | 75% |  | 
CC/C=C\C/C=C\C/C=C\C/C=C\C/C=C\C/C=C\CCC(=O)OCC(COC(=O)CC/C=C\C/C=C\C/C=C\C/C=C\C/C=C\C/C=C\CC)OC(=O)CC/C=C\C/C=C\C/C=C\C/C=C\C/C=C\C/C=C\CC [DHA triglyceride] |  |  | 67% | inhibits the induction of hepatitis

From patent publication US5436269A, “Method for treating hepatitis” (Sagami Chemical Research Center, priority 1991, dated 1995)
